# Source: patent US8211909B2, “Treatment of antibiotic-resistant bacteria infection” (TaiGen Biotechnology Co., Ltd., priority 2008, dated 2012)
# Read-outs that look alike come from different tables or passages of the source.
# Tests used:
# S. pneumoniae = test: CANWARD 2007 gram-positive cocci, CLSI broth microdilution; assay type: cell-based, Streptococcus pneumoniae; design: MIC50 / MIC90: unit not given here
# Experimental: (§1) From January-December 2007, 12 hospitals across Canada submitted isolates from patients attending hospital clinics, emergency rooms, medical and surgical wards, and intensive care units. 7881 isolates (CANWARD 2007) were collected including 3473 gram-positive cocci. Susceptibility testing for Compound 1 and Levofloxacin was performed using the Clinical and Laboratory Standards Institute broth microdilution.
# H. pylori isolates = test: MIC by agar dilution against 200 H. pylori isolates (Taiwan); assay type: cell-based, Helicobacter pylori
# Experimental: MICs were determined using the agar dilution methods recommended by the Clinical and Laboratory Standards Institute (CLSI-M100-S18).
# [1] = system: Staphylococcus epidermidis (MSSE, MRSE); test: CANWARD 2007 gram-positive cocci, CLSI broth microdilution; assay type: cell-based; design: MIC50 / MIC90: unit not given beside the values
# Experimental: as §1
# [2] = system: multidrug-resistant Methicillin-resistant Staphylococcus aureus; test: MIC by agar dilution (CLSI-M100-S18), Taiwan multidrug-resistant MRSA isolates; assay type: cell-based; details: for MIC50 / MIC90: Staphylococcus aureus, MRSA
# Experimental: (§2) Compound 1 was tested for its inhibitory effect against multidrug-resistant Methicillin-resistant Staphylococcus aureus and Enterococci obtained by 10 medical centers in all regions of Taiwan. MICs were determined using the agar dilution methods recommended by the Clinical and Laboratory Standards Institute (CLSI-M100-S18).
# E. faecalis = test: CANWARD 2007 gram-positive cocci, CLSI broth microdilution; assay type: cell-based; design: unit not given beside the values; details: E. faecalis (81)
# Experimental: as §1
# [3] = Pharmacokinetic assays of plasma of subjects taking Compound 1; details: for Cmax: day 10, plasma; for Free AUC0-24 / Free Cmax: corrected for plasma protein binding
# Experimental: 5 mL of each sample was transferred to a heparin sodium tube and immediately placed on ice. Plasma was separated by centrifugation at approximately 4° C. and transferred to appropriately labeled polypropylene specimen containers (two tubes with 1-1.5 mL plasma/tube) and frozen at approximately −70° C. before use.
# Prior to analysis of the blood samples, pharmacokinetic assays were validated.
# The pharmacokinetic assays of the blood samples were performed by Charles River Laboratories (Worcester, Mass.).
# [4] = system: Vancomycin-resistant E. faecium; test: MIC by agar dilution (CLSI-M100-S18), Taiwan Enterococci isolates; assay type: cell-based, Enterococcus faecium
# Experimental: as §2
# [5] = system: Staphylococcus aureus strains (MRSA, hVISA, VISA, VRSA, quinolone-resistant MRSA); test: MIC by agar dilution against Staphylococcal strains (MRSA, hVISA, VISA, VRSA, quinolone-resistant MRSA); assay type: cell-based; details: for MIC50 / MIC90 / MIC: Staphylococcus aureus
# Experimental: Compound 1 was tested for its inhibitory effect against 26 Methicillin-resistant Staphylococcus aureus (MRSA) strains, 2 hetero-Vancomycin intermediate Staphylococcus aureus (hVISA) strains, 24 Vancomycin-intermediate Staphylococcus aureus (VISA) strains, 5 Vancomycin-resistant Staphylococcus aureus (VRSA) strains, and 31 quinolone-resistant Vancomycin-susceptibale MRSA strains with defined mutations in QRDR. These mutations were determined by sequencing analysis of the QRDR (gyrA, gyrB, grlA, and grlB). Efflux testing was performed by the reserpine method (Brenwald, et al., Antimicrob. Agents Chemother. 1998, 42: 2032-2035).
# [6] = system: Vancomycin-resistant E. faecalis; test: MIC by agar dilution (CLSI-M100-S18), Taiwan Enterococci isolates; assay type: cell-based, Enterococcus faecalis
# Experimental: as §2
# [7] = Helicobacter pylori, 200 isolates of H. pylori
# [8] = Ciprofloxacin-resistant MRSA (n = 20)
# [9] = Ciprofloxacin-susceptible MRSA (n = 20)
# [10] = Daptomycin-nonsusceptible MRSA (n = 5)
# [11] = Vancomycin-intermediate MRSA (n = 50)
# [12] = 500 mg q24 p.o., MIC90 0.125 μg/mL
# [13] = 500 mg q24 p.o., MIC90 0.5 μg/mL
# [14] = 500 mg q24 p.o., MIC90 0.75 μg/mL
# [15] = 750 mg q24 p.o., MIC90 0.125 μg/mL
# [16] = 750 mg q24 p.o., MIC90 0.5 μg/mL
# [17] = 750 mg q24 p.o., MIC90 0.75 μg/mL
# [18] = 1000 mg q24 p.o., MIC90 0.125 μg/mL
# [19] = 1000 mg q24 p.o., MIC90 0.5 μg/mL
# [20] = 1000 mg q24 p.o., MIC90 0.75 μg/mL
# [21] = 1000 mg q24 p.o., MIC90 1 μg/mL
# [22] = Enterococcus faecium, Vancomycin-resistant E. faecium (n = 78)
# [23] = hVISA(2) + VISA (24) + VRSA (5)
# [24] = Enterococcus faecalis, Vancomycin-resistant E. faecalis (n = 34)
smiles,measurement,setting,value
"COc1c(N2C[C@@H](C)C[C@H](N)C2)ccc2c(=O)c(C(=O)O)cn(C3CC3)c12 [Compound 1, (3S,5S)-7-[3-amino-5-methyl-piperidinyl]-1-cyclopropyl-1,4-dihydro-8-methoxy-4-oxo-3-quinolinecarboxylic acid]",activity compared with Levofloxacin (in words),"S. pneumoniae; PenI-SPN, PenR-SPN, CipR-SPN",more active than Levofloxacin
same,MIC50,S. pneumoniae; SPN CipR (29),0.03
same,MIC90,S. pneumoniae; SPN CipR (29),0.12
same,MIC50,S. pneumoniae; SPN PenI (103),0.015/0.015
same,MIC90,S. pneumoniae; SPN PenI (103),0.015/0.015
same,MIC50,S. pneumoniae; SPN PenR (34),0.015
same,MIC90,S. pneumoniae; SPN PenR (34),0.03
same,MIC50,S. pneumoniae; SPN PenS (519),0.015/0.015
same,MIC90,S. pneumoniae; SPN PenS (519),0.015/0.015
same,MIC50,S. pneumoniae; SPN-All (656),0.015/0.015
same,MIC90,S. pneumoniae; SPN-All (656),0.015/0.015
same,inhibition (in words),H. pylori isolates; H. pylori isolates,effectively inhibited
same,inhibition compared with other quinolones (in words),H. pylori isolates; H. pylori isolates,"more effective in inhibiting the isolates of H. pylori than Ciprofloxacin, Levofloxacin, and Moxifloxacin, and comparable to Gemifloxacin"
same,MIC50,H. pylori isolates; [7],60 µg/mL
same,MIC90,H. pylori isolates; [7],250 µg/mL
same,activity compared with Levofloxacin (in words),[1]; MRSE,more active than Levofloxacin
same,MIC50,[1]; MRSE (9),2/2
same,MIC90,[1]; MRSE (9),2/2
same,MIC50,[1]; MSSE (32),0.03
same,MIC90,[1]; MSSE (32),0.5
same,MIC Range,[2]; [8],0.5 to 1 µg/mL
same,MIC Range,[2]; [9],≦0.03-0.06 μg/mL
same,MIC Range,[2]; [10],0.5 to 1 µg/mL
same,inhibition (in words),"[2]; MRSA isolates that are Ciprofloxacin-resistant, Vancomycin-intermediate-resistant, Daptomycin-nonsusceptible",effective
same,MIC50,[2]; [8],0.5 µg/mL
same,MIC90,[2]; [8],1 µg/mL
same,MIC50,[2]; [9],≤ 0.03 µg/mL
same,MIC90,[2]; [9],≤ 0.03 µg/mL
same,MIC50,[2]; [10],0.5 µg/mL
same,MIC90,[2]; [10],1 µg/mL
same,MIC50,[2]; [11],0.5 µg/mL
same,MIC90,[2]; [11],2 µg/mL
same,MIC Range,[2]; [11],0.03 to 8 µg/mL
same,MIC50,E. faecalis,0.12
same,MIC90,E. faecalis,1
same,Cmax,[3]; 500 mg q24 p.o.,5560 ng/mL
same,Free AUC0-24/MIC90 ratio at steady state,[3]; [12],259
same,Free Cmax/MIC90 ratio at steady state,[3]; [12],37
same,Free AUC0-24/MIC90 ratio at steady state,[3]; [13],65
same,Free Cmax/MIC90 ratio at steady state,[3]; [13],9
same,Free AUC0-24/MIC90 ratio at steady state,[3]; [14],43
same,Free Cmax/MIC90 ratio at steady state,[3]; [14],6
same,Free AUC0-24/MIC90 ratio at steady state,"[3]; 500 mg q24 p.o., MIC90 1 μg/mL",32
same,Free Cmax/MIC90 ratio at steady state,"[3]; 500 mg q24 p.o., MIC90 1 μg/mL",5
same,Free AUC0-24/MIC90 ratio at steady state,"[3]; 500 mg q24 p.o., MIC90 […]",130
same,Free Cmax/MIC90 ratio at steady state,"[3]; 500 mg q24 p.o., MIC90 […]",19
same,Free AUC0-24,[3]; 500 mg q24 p.o.,32400 ng·h/mL
same,Free Cmax,[3]; 500 mg q24 p.o.,4700 ng/mL
same,Cmax,[3]; 750 mg q24 p.o.,6820 ng/mL
same,Free AUC0-24/MIC90 ratio at steady state,[3]; [15],393
same,Free Cmax/MIC90 ratio at steady state,[3]; [15],46
same,Free AUC0-24/MIC90 ratio at steady state,[3]; [16],98
same,Free Cmax/MIC90 ratio at steady state,[3]; [16],11
same,Free AUC0-24/MIC90 ratio at steady state,[3]; [17],65
same,Free Cmax/MIC90 ratio at steady state,[3]; [17],8
same,Free AUC0-24/MIC90 ratio at steady state,"[3]; 750 mg q24 p.o., MIC90 1 μg/mL",49
same,Free Cmax/MIC90 ratio at steady state,"[3]; 750 mg q24 p.o., MIC90 1 μg/mL",6
same,Free AUC0-24/MIC90 ratio at steady state,"[3]; 750 mg q24 p.o., MIC90 […]",196
same,Free Cmax/MIC90 ratio at steady state,"[3]; 750 mg q24 p.o., MIC90 […]",23
same,Free AUC0-24,[3]; 750 mg q24 p.o.,49100 ng·h/mL
same,Free Cmax,[3]; 750 mg q24 p.o.,5700 ng/mL
same,Cmax,[3]; 1000 mg q24 p.o.,8200 ng/mL
same,Free AUC0-24/MIC90 ratio at steady state,[3]; [18],503
same,Free Cmax/MIC90 ratio at steady state,[3]; [18],55
same,Free AUC0-24/MIC90 ratio at steady state,[3]; [19],126
same,Free Cmax/MIC90 ratio at steady state,[3]; [19],14
same,Free AUC0-24/MIC90 ratio at steady state,[3]; [20],84
same,Free Cmax/MIC90 ratio at steady state,[3]; [20],9
same,Free AUC0-24/MIC90 ratio at steady state,[3]; [21],63
same,Free Cmax/MIC90 ratio at steady state,[3]; [21],7
same,Free AUC0-24/MIC90 ratio at steady state,"[3]; 1000 mg q24 p.o., MIC90 […]",251
same,Free Cmax/MIC90 ratio at steady state,"[3]; 1000 mg q24 p.o., MIC90 […]",28
same,Free AUC0-24,[3]; 1000 mg q24 p.o.,62900 ng·h/mL
same,Free Cmax,[3]; 1000 mg q24 p.o.,6900 ng/mL
same,MIC50,[4]; [22],4 µg/mL
same,MIC90,[4]; [22],16 µg/mL
same,MIC Range,[4]; Vancomycin-resistant E. faecium (n = 78),0.06 to 16 µg/mL
same,inhibition (in words),[4]; Vancomycin-resistant Enterococcus faecium,effective
same,inhibition (in words),"[5]; Methicillin-resistant, hVISA, VISA, VRSA and quinolone-resistant Vancomycin-susceptible MRSA isolates",effectively inhibited
same,MIC50,[5]; MRSA (26),0.03 µg/mL
same,MIC90,[5]; MRSA (26),0.06 µg/mL
same,MIC50,[5]; Quinolone-resistant MRSA (31),1 µg/mL
same,MIC90,[5]; Quinolone-resistant MRSA (31),2 µg/mL
same,MIC50,[5]; [23],1 µg/mL
same,MIC90,[5]; [23],2 µg/mL
same,MIC,"[5]; read-out: MIC Range, MRSA (26)",0.016 to 0.06 µg/mL
same,MIC,"[5]; read-out: MIC Range, Quinolone-resistant MRSA (31)",0.5 to 4 µg/mL
same,MIC,"[5]; read-out: MIC Range, hVISA(2) + VISA (24) + VRSA (5)",0.06 to 2 µg/mL
same,MIC,"[5]; read-out: MICs, against these strains",0.06 to 4 µg/mL
same,MIC50,[6]; [24],4 µg/mL
same,MIC90,[6]; [24],4 µg/mL
same,MIC Range,[6]; Vancomycin-resistant E. faecalis (n = 34),0.12 to 8 µg/mL
same,inhibition (in words),[6]; Vancomycin-resistant Enterococcus faecalis,effective
